Source: PMC11277489, “Novel Piperazine Derivatives of Vindoline as Anticancer Agents” (International Journal of Molecular Sciences, 2024)

How the values were obtained:
SK-MEL-2 = assay: NCI60 one-dose screen (10 μM), Melanoma; assay type: cell-based; conditions: Homo sapiens, SK-MEL-2, read-out: Growth percent rate
MDA-MB-435 = assay: NCI60 one-dose screen (10 μM), Melanoma; assay type: cell-based; conditions: Homo sapiens, MDA-MB-435, read-out: Growth percent rate
ACHN = assay: NCI60 one-dose screen (10 μM), Renal Cancer; assay type: cell-based; conditions: Homo sapiens, read-out: Growth percent rate
786–0 = assay: NCI60 one-dose screen (10 μM), Renal Cancer; assay type: cell-based; conditions: Homo sapiens, 786-0, read-out: Growth percent rate
HCT-15 = assay: NCI60 one-dose screen (10 μM), Colon Cancer; assay type: cell-based; conditions: Homo sapiens, HCT-15, read-out: Growth percent rate
HL-60(TB) = assay: NCI60 one-dose screen (10 μM), Leukemia; assay type: cell-based; conditions: Homo sapiens, HL-60, read-out: Growth percent rate
M14 = assay: NCI60 one-dose screen (10 μM), Melanoma; assay type: cell-based; conditions: Homo sapiens, M14, read-out: Growth percent rate
MOLT-4 = assay: NCI60 one-dose screen (10 μM), Leukemia; assay type: cell-based, human; conditions: Homo sapiens, MOLT-4, read-out: Growth percent rate
SK-MEL-5 = assay: NCI60 one-dose screen (10 μM), Melanoma; assay type: cell-based, human; conditions: Homo sapiens, SK-MEL-5, read-out: Growth percent rate
A549/ATCC = assay: NCI60 one-dose screen (10 μM), Non-small Cell Lung Cancer; assay type: cell-based; conditions: Homo sapiens, A549, read-out: Growth percent rate
NCI-H23 = assay: as above; assay type: cell-based; conditions: Homo sapiens, NCI-H23, read-out: Growth percent rate
SF-268 = assay: NCI60 one-dose screen (10 μM), CNS Cancer; assay type: cell-based; conditions: Homo sapiens, SF-268, read-out: Growth percent rate
K-562 = assay: NCI60 one-dose screen (10 μM), Leukemia; assay type: cell-based; conditions: Homo sapiens, K562, read-out: Growth percent rate
IGROV1 = assay: NCI60 one-dose screen (10 μM), Ovarian Cancer; assay type: cell-based; conditions: Homo sapiens, IGROV-1, read-out: Growth percent rate
UACC-257 = assay: NCI60 one-dose screen (10 μM), Melanoma; assay type: cell-based; conditions: Homo sapiens, UACC-257, read-out: Growth percent rate
EKVX = assay: NCI60 one-dose screen (10 μM), Non-small Cell Lung Cancer; assay type: cell-based; conditions: Homo sapiens, read-out: Growth percent rate
SNB-75 = assay: NCI60 one-dose screen (10 μM), CNS Cancer; assay type: cell-based, human; conditions: Homo sapiens, SNB-75, read-out: Growth percent rate
HS 578T = assay: NCI60 one-dose screen (10 μM), Breast Cancer; assay type: cell-based; conditions: Homo sapiens, Hs-578T, read-out: Growth percent rate
CCRF-CEM = assay: NCI60 one-dose screen (10 μM), Leukemia; assay type: cell-based; conditions: Homo sapiens, read-out: Growth percent rate
SN12C = assay: NCI60 one-dose screen (10 μM), Renal Cancer; assay type: cell-based; conditions: Homo sapiens, read-out: Growth percent rate
OVCAR-8 = assay: NCI60 one-dose screen (10 μM), Ovarian Cancer; assay type: cell-based; conditions: Homo sapiens, OVCAR-8, read-out: Growth percent rate
DU-145 = assay: NCI60 one-dose screen (10 μM), Prostate Cancer; assay type: cell-based; conditions: Homo sapiens, DU-145, read-out: Growth percent rate
RXF 393 = assay: NCI60 one-dose screen (10 μM), Renal Cancer; assay type: cell-based, human; conditions: Homo sapiens, RXF 393, read-out: Growth percent rate
COLO 205 = assay: NCI60 one-dose screen (10 μM), Colon Cancer; assay type: cell-based, human; conditions: Homo sapiens, COLO 205, read-out: Growth percent rate
SK-MEL-28 = assay: NCI60 one-dose screen (10 μM), Melanoma; assay type: cell-based; conditions: Homo sapiens, SK-MEL-28, read-out: Growth percent rate
NCI-H322M = assay: NCI60 one-dose screen (10 μM), Non-small Cell Lung Cancer; assay type: cell-based; conditions: Homo sapiens, read-out: Growth percent rate
A498 = assay: NCI60 one-dose screen (10 μM), Renal Cancer; assay type: cell-based; conditions: Homo sapiens, A498, read-out: Growth percent rate
NCI-H522 = assay: NCI60 one-dose screen (10 μM), Non-small Cell Lung Cancer; assay type: cell-based; conditions: Homo sapiens, NCI-H522, read-out: Growth percent rate
HCT-116 = assay: NCI60 one-dose screen (10 μM), Colon Cancer; assay type: cell-based; conditions: Homo sapiens, HCT-116, read-out: Growth percent rate
U251 = assay: NCI60 one-dose screen (10 μM), CNS Cancer; assay type: cell-based; conditions: Homo sapiens, U-251, read-out: Growth percent rate
SF-539 = assay: NCI60 one-dose screen (10 μM), CNS Cancer; assay type: cell-based, human; conditions: Homo sapiens, SF-539, read-out: Growth percent rate
SW-620 = assay: NCI60 one-dose screen (10 μM), Colon Cancer; assay type: cell-based; conditions: Homo sapiens, SW-620, read-out: Growth percent rate
RPMI-8226 = assay: NCI60 one-dose screen (10 μM), Leukemia; assay type: cell-based; conditions: Homo sapiens, RPMI-8226, read-out: Growth percent rate
[1] = system: 60 human tumor cell lines (NCI60); assay: NCI60 one-dose screen (10 μM), whole panel; assay type: cell-based; conditions: Homo sapiens, read-out: Growth percent rate, Mean
OVCAR-3 = assay: NCI60 one-dose screen (10 μM), Ovarian Cancer; assay type: cell-based; conditions: Homo sapiens, OVCAR-3, read-out: Growth percent rate
HT29 = assay: NCI60 one-dose screen (10 μM), Colon Cancer; assay type: cell-based; conditions: Homo sapiens, HT-29, read-out: Growth percent rate
MCF7 = assay: NCI60 one-dose screen (10 μM), Breast Cancer; assay type: cell-based; conditions: Homo sapiens, MCF7, read-out: Growth percent rate
NCI-H460 = assay: NCI60 one-dose screen (10 μM), Non-small Cell Lung Cancer; assay type: cell-based; conditions: Homo sapiens, NCI-H460, read-out: Growth percent rate
OVCAR-4 = assay: NCI60 one-dose screen (10 μM), Ovarian Cancer; assay type: cell-based; conditions: Homo sapiens, OVCAR-4, read-out: Growth percent rate
CAKI-1 = assay: NCI60 one-dose screen (10 μM), Renal Cancer; assay type: cell-based; conditions: Homo sapiens, CAKI-1, read-out: Growth percent rate
HOP-62 = assay: NCI60 one-dose screen (10 μM), Non-small Cell Lung Cancer; assay type: cell-based; conditions: Homo sapiens, HOP-62, read-out: Growth percent rate
HCC-2998 = assay: NCI60 one-dose screen (10 μM), Colon Cancer; assay type: cell-based; conditions: Homo sapiens, HCC 2998, read-out: Growth percent rate

`CC[C@]12C=CCN3CC[C@@]4(c5ccc(OC)cc5N(C)[C@H]4[C@@](O)(C(=O)OC)[C@@H]1OC(=O)CCC(=O)N1CCN(C(=O)c4ccco4)CC1)[C@@H]32` [Compound 32] gave an activity at 10 µM (SK-MEL-2) of 96.8%, an activity at 10 µM (MDA-MB-435) of 98.2% and an activity at 10 µM (ACHN) of 103%. The activity at 10 µM (786–0) was 104%, the activity at 10 µM (HCT-15) was 100% and the activity at 10 µM (HL-60(TB)) was 90.9%. For the same compound, the activity at 10 µM (M14) was 88.3%, the activity at 10 µM (MOLT-4) was 85.8% and the activity at 10 µM (SK-MEL-5) was 83.8%. For the same compound, the activity at 10 µM (A549/ATCC) was 95.2%, the activity at 10 µM (NCI-H23) was 101% and the activity at 10 µM (SF-268) was 92.2%. It also gave an activity at 10 µM (K-562) of 102%, an activity at 10 µM (IGROV1) of 126% and an activity at 10 µM (UACC-257) of 61.7%. The activity at 10 µM (EKVX) was 99.4%, the activity at 10 µM (SNB-75) was 109% and the activity at 10 µM (HS 578T) was 103%. For the same compound, the activity at 10 µM (CCRF-CEM) was 86.8%, the activity at 10 µM (SN12C) was 94.4% and the activity at 10 µM (OVCAR-8) was 100%. For the same compound, the activity at 10 µM (DU-145) was 116%, the activity at 10 µM (RXF 393) was 102% and the activity at 10 µM (COLO 205) was 45.8%. The activity at 10 µM (SK-MEL-28) was 67.6%, the activity at 10 µM (NCI-H322M) was 114% and the activity at 10 µM (A498) was 117%. The activity at 10 µM (NCI-H522) was 81.4%, the activity at 10 µM (HCT-116) was 119% and the activity at 10 µM (U251) was 97.4%. It also gave an activity at 10 µM (SF-539) of 98.8%, an activity at 10 µM (SW-620) of 117% and an activity at 10 µM (RPMI-8226) of 99.4%. The activity at 10 µM [1] was 97.2%, the activity at 10 µM (OVCAR-3) was 99.8% and the activity at 10 µM (HT29) was 102%. The activity at 10 µM (MCF7) was 91.5%, the activity at 10 µM (NCI-H460) was 107% and the activity at 10 µM (OVCAR-4) was 98.1%. For the same compound, the activity at 10 µM (CAKI-1) was 78.4%, the activity at 10 µM (HOP-62) was 96.2% and the activity at 10 µM (HCC-2998) was 113%.
